Results published in ChEMBL document CHEMBL1159013, “Additional bioactive compounds and trilobacin, a novel highly cytotoxic acetogenin, from the bark of Asimina triloba” (J Nat Prod, 1992).
Converted amounts (≈) assume the structure as drawn.

Columns and labels:
MCF7 = experiment: Cytotoxicity against human MCF7 cells after 7 days; assay type: functional; details: MCF7, 168 h, read-out: ED50 (the source's name)
HT-29 [1] = experiment: Cytotoxicity against human HT-29 cells after 7 days; assay type: functional; details: for EC50: Homo sapiens, HT-29, 168 h, read-out: ED50 (the source's name)
[2] = Toxicity against brine shrimp larvae; assay type: organism-based; details: artemia, in vivo
A549 [3] = experiment: Cytotoxicity against human A549 cells after 7 days; assay type: functional; details: for EC50: Homo sapiens, A549, 168 h, read-out: ED50 (the source's name)
CCRF-CEM = experiment: Growth inhibition of human CCRF-CEM cells after 3 days; assay type: functional; details: 72 h
SK-OV-3 = experiment: Growth inhibition of human SKOV3 cells after 3 days; assay type: functional; details: SK-OV-3, 72 h
XF498 = experiment: Growth inhibition of human XF498 cells after 3 days; assay type: functional; details: XF498, 72 h
SF-268 = experiment: Growth inhibition of human SF268 cells after 3 days; assay type: functional; details: SF-268, 72 h
EKVX = experiment: Growth inhibition of human EKVX cells after 3 days; assay type: functional; details: 72 h
SK-MEL-28 = experiment: Growth inhibition of human SK-MEL-28 cells after 3 days; assay type: functional; details: SK-MEL-28, 72 h
SNB-75 = experiment: Growth inhibition of human SNB75 cells after 3 days; assay type: functional; details: SNB-75, 72 h
HT-29 [4] = experiment: Growth inhibition of human HT-29 cells after 3 days; assay type: functional; details: HT-29, 72 h
SNB-78 = experiment: Growth inhibition of human SNB78 cells after 3 days; assay type: functional; details: SNB-78, 72 h
OVCAR-8 = experiment: Growth inhibition of human OVCAR8 cells after 3 days; assay type: functional; details: OVCAR-8, 72 h
SN12C = experiment: Growth inhibition of human SN12C cells after 3 days; assay type: functional; details: 72 h
TK-10 = experiment: Growth inhibition of human TK10 cells after 3 days; assay type: functional; details: TK-10, 72 h
786-0 = experiment: Growth inhibition of human 786-0 cells after 3 days; assay type: functional; details: 786-0, 72 h
[5] = Growth inhibition of human LXFL529 cells after 3 days; assay type: functional; details: LXFL 529, 72 h
M19-MEL = experiment: Growth inhibition of human M19-MEL cells after 3 days; assay type: functional; details: 72 h
[6] = Growth inhibition of human RXF631 cells after 3 days; assay type: functional; details: RXF 631, 72 h
A549 [7] = experiment: Growth inhibition of human A549 cells after 3 days; assay type: functional; details: A549, 72 h
HCC 2998 = experiment: Growth inhibition of human HCC2998 cells after 3 days; assay type: functional; details: HCC 2998, 72 h
MOLT-4 = experiment: Growth inhibition of human MOLT4 cells after 3 days; assay type: functional; details: MOLT-4, 72 h
COLO 205 = experiment: Growth inhibition of human COLO205 cells after 3 days; assay type: functional; details: COLO 205, 72 h
M14 = experiment: Growth inhibition of human M14 cells after 3 days; assay type: functional; details: M14, 72 h
DLD-1 = experiment: Growth inhibition of human DLD1 cells after 3 days; assay type: functional; details: DLD-1, 72 h
SK-MEL-2 = experiment: Growth inhibition of human SK-MEL-2 cells after 3 days; assay type: functional; details: SK-MEL-2, 72 h
U-251 = experiment: Growth inhibition of human U251 cells after 3 days; assay type: functional; details: U-251, 72 h
HOP-92 = experiment: Growth inhibition of human HOP92 cells after 3 days; assay type: functional; details: HOP-92, 72 h
Malme-3M = experiment: Growth inhibition of human MALME-3M cells after 3 days; assay type: functional; details: 72 h
SR = experiment: Growth inhibition of human SR cells after 3 days; assay type: functional; details: 72 h
A498 = experiment: Growth inhibition of human A498 cells after 3 days; assay type: functional; details: A498, 72 h
SF-539 = experiment: Growth inhibition of human SF539 cells after 3 days; assay type: functional; details: SF-539, 72 h
HOP-62 = experiment: Growth inhibition of human HOP62 cells after 3 days; assay type: functional; details: HOP-62, 72 h
NCI-H322M = experiment: Growth inhibition of human NCI-H322M cells after 3 days; assay type: functional; details: 72 h
OVCAR-3 = experiment: Growth inhibition of human OVCAR-3 cells after 3 days; assay type: functional; details: OVCAR-3, 72 h
IGROV-1 = experiment: Growth inhibition of human IGROV1 cells after 3 days; assay type: functional; details: IGROV-1, 72 h
OVCAR-5 = experiment: Growth inhibition of human OVCAR5 cells after 3 days; assay type: functional; details: OVCAR-5, 72 h
KM-20L2 = experiment: Growth inhibition of human KM20L2 cells after 3 days; assay type: functional; details: KM-20L2, 72 h
SW-620 = experiment: Growth inhibition of human SW620 cells after 3 days; assay type: functional; details: SW-620, 72 h
NCI-H460 = experiment: Growth inhibition of human NCI-H460 cells after 3 days; assay type: functional; details: NCI-H460, 72 h
DMS-273 = experiment: Growth inhibition of human DMS273 cells after 3 days; assay type: functional; details: DMS-273, 72 h
CAKI-1 = experiment: Growth inhibition of human Caki1 cells after 3 days; assay type: functional; details: CAKI-1, 72 h
UACC-62 = experiment: Growth inhibition of human UACC62 cells after 3 days; assay type: functional; details: UACC-62, 72 h
LOX IMVI = experiment: Growth inhibition of human LOXIMVI cells after 3 days; assay type: functional; details: 72 h

In the case of `O=C(/C=C/c1ccc(O)cc1)NCCc1ccc(O)cc1` [N-P-COUMAROYL TYRAMINE], the EC50 (MCF7) was 716 ng/mL (≈ 2530 nM), the EC50 (HT-29 [1]) was 674 ng/mL (≈ 2380 nM) and the LC50 [2] was 6700 ng/mL (≈ 23600 nM). The EC50 (A549 [3]) was 3240 ng/mL (≈ 11400 nM).

`COc1cc(/C=C/C(=O)NCCc2ccc(O)cc2)ccc1O` [N-TRANS-FERULOYL TYRAMINE] showed an EC50 (MCF7) of 4760 ng/mL (≈ 15200 nM), an EC50 (HT-29 [1]) of 23600 ng/mL (≈ 75300 nM) and an LC50 [2] of 6700 ng/mL (≈ 21400 nM). For the same compound, the EC50 (A549 [3]) was 13400 ng/mL (≈ 42600 nM).

Compound `COc1cc([C@H]2OC[C@H]3[C@@H]2CO[C@@H]3c2cc(OC)c(O)c(OC)c2)cc(OC)c1O` [SYRINGARESINOL] has an EC50 (MCF7) of 3690 ng/mL (≈ 8820 nM), an EC50 (HT-29 [1]) of 15500 ng/mL (≈ 37000 nM) and an LC50 [2] of 13600 ng/mL (≈ 32500 nM). For the same compound, the EC50 (A549 [3]) was 14900 ng/mL (≈ 35600 nM).

In the case of `CCCCCCCCCC[C@@H](O)[C@H]1CC[C@@H]([C@H]2CC[C@H]([C@H](O)CCCCCCCCCC[C@@H](O)CC3=C[C@H](C)OC3=O)O2)O1` [TRILOBACIN], the GI50 (CCRF-CEM) was 0.0017 ng/mL (≈ 0.00273 nM), the GI50 (SK-OV-3) was 8200 nM and the GI50 (XF498) was 0.00203 ng/mL (≈ 0.00326 nM). For the same compound, the GI50 (SF-268) was 1700 nM, the EC50 (MCF7) was 329 ng/mL (≈ 528 nM) and the GI50 (EKVX) was 0.002 ng/mL (≈ 0.00321 nM). The GI50 (SK-MEL-28) was 0.00201 ng/mL (≈ 0.00323 nM), the GI50 (SNB-75) was 0.00319 ng/mL (≈ 0.00512 nM) and the GI50 (HT-29 [4]) was 0.00216 ng/mL (≈ 0.00347 nM). It also gave a GI50 (SNB-78) of 2050 nM, a GI50 (OVCAR-8) of 0.00293 ng/mL (≈ 0.0047 nM) and a GI50 (SN12C) of 1640 nM. The GI50 (TK-10) was 7000 nM, the ED50 (HT-29 [1]) was <1 ×10⁻¹⁵ ug/ml and the GI50 (786-0) was 0.0022 ng/mL (≈ 0.00353 nM). For the same compound, the GI50 [5] was 0.00217 ng/mL (≈ 0.00348 nM), the GI50 (M19-MEL) was 0.00263 ng/mL (≈ 0.00422 nM) and the GI50 [6] was 1800 nM. It also gave a GI50 (A549 [7]) of 0.00164 ng/mL (≈ 0.00263 nM), a GI50 (HCC 2998) of 0.00292 ng/mL (≈ 0.00469 nM) and a GI50 (MOLT-4) of 0.00116 ng/mL (≈ 0.00186 nM). The GI50 (COLO 205) was 0.00349 ng/mL (≈ 0.0056 nM), the GI50 (M14) was 0.0104 ng/mL (≈ 0.0167 nM) and the GI50 (DLD-1) was 0.0027 ng/mL (≈ 0.00433 nM). It also gave a GI50 (SK-MEL-2) of 0.00228 ng/mL (≈ 0.00366 nM), a GI50 (U-251) of 4330 nM and an LC50 [2] of 8.7 ng/mL (≈ 14 nM). For the same compound, the GI50 (HOP-92) was 0.00276 ng/mL (≈ 0.00443 nM), the GI50 (Malme-3M) was 0.00144 ng/mL (≈ 0.00231 nM) and the GI50 (SR) was 1090 nM. It also gave a GI50 (A498) of 0.00686 ng/mL (≈ 0.011 nM), a GI50 (SF-539) of 0.00138 ng/mL (≈ 0.00222 nM) and a GI50 (HOP-62) of 0.00234 ng/mL (≈ 0.00376 nM). The GI50 (NCI-H322M) was 4060 nM, the GI50 (OVCAR-3) was 0.00109 ng/mL (≈ 0.00175 nM) and the GI50 (IGROV-1) was 0.00481 ng/mL (≈ 0.00772 nM). It also gave a GI50 (OVCAR-5) of 4330 nM, a GI50 (KM-20L2) of 0.00375 ng/mL (≈ 0.00602 nM) and a GI50 (SW-620) of 2640 nM. It also gave a GI50 (NCI-H460) of 0.00293 ng/mL (≈ 0.0047 nM), a GI50 (DMS-273) of 0.00177 ng/mL (≈ 0.00284 nM) and a GI50 (CAKI-1) of 0.00883 ng/mL (≈ 0.0142 nM). For the same compound, the GI50 (UACC-62) was 2670 nM, the ED50 (A549 [3]) was 8.02 ×10⁻⁴ ug/ml and the GI50 (LOX IMVI) was 0.0012 ng/mL (≈ 0.00193 nM).
